# Laboratory results as given in patent US20250206789A1, “ZINC FINGER DEGRON SEQUENCES” (STICHTING HET NEDERLANDS KANKER INSTITUUT-ANTONI VAN …, priority 2022, published 2025).
# Legend:
# [1] = tested on: Jurkat cells; assay: SynFinger library screen: CD69 expression of CRASH-IT (Zap70-PD1-degron) transduced Jurkat cells with or without lenalidomide, enrichment index from NGS reads; format: cell-based; set-up: key to EI / EI index (enrichment index): enrichment index; low EI = SynFinger with desired properties; settings: for EI index (enrichment index): Table 6, dual substitutions in first hybrid zinc finger domain, Jurkat, 50 nM lenalidomide vs mock, CD69-HI/CD69-LO, low EI = desired
# Text: […] Jurkat cells were transduced with the SynFinger library (SynFinger containing CRASH-IT switches) at a 12.8% transduction efficiency and sorted for high EGFP expression to enrich transduced cells. For quality control of the SynFinger transduced Jurkat cells, SynFinger sequences were amplified and analyzed by NGS. 10 randomly selected SynFinger encoding DNA sequences or DNA sequences encoding the same SynFinger amino acid sequences but contain 2 nucleotide mismatches due to alternative codon usage were used to assess ability to distinguish true SynFinger sequences from noise in the NGS data. 10/10 SynFinger encoding full-nucleotide sequence match sequences were observed within NGS data whereas the 2 nucleotide mismatch containing sequences were not detected.
# Jurkat cells expressing the SynFinger library were treated with 50 nM lenalidomide (a suboptimal dose that activates only ˜50% of cells expressing a CRASH-IT switch containing the parental double hybrid degron in Jurkat cells, as compared to a maximally effective 1000 nM lenalidomide dose) or were mock treated for 24 hours, and subsequently activated with anti-CD3/anti-CD28 antibodies in the presence or absence of 50 nM lenalidomide for 5 hours. Afterwards, cells were stained with IR dye (1:400) and anti-CD69-PE (1:200). Cells were sorted for live (IR dye negative), EGFP high end CD69 high (top 5%) or CD69 low (bottom 5%) expression using Aria Fusion cytometers.
# Subsequently, cells were washed with PBS, and cell pellets were frozen at −20° C. until DNA extraction. Genomic DNA was isolated using the DNeasy Blood & Tissue Kit (Qiagen) according to the manufacturer's instructions, using 5×10^6 cells per column. DNA was eluted in 22 μl RNAse free water. Deep sequencing adapters and indexes were added to SynFinger encoding DNA sequences using PCR amplification. Briefly, 3 μg genomic DNA (20 μl), indexed forward and reverse primers (10 μM, 2.5 μl each) and 25 μl NEBNext® High-Fidelity 2×PCR Master Mix were added to the PCR reaction. An optimized PCR reaction (98° C. for 30 s, (98° C. for 10 s, 56° C. for 10 s, 72° C. for 5 s)×25 cycles, 72° C. for 3 min was performed using Eppendorf PCR cyclers.
# Indexed PCR products were run on agarose gel, relative DNA concentrations were estimated by measuring band intensity, and 12 indexed PCR reaction products were mixed per MiSeq chip. To increase sequence diversity, samples were mixed with 25% PhiX DNA. In total, 2 MiSeq chips were used (100 bp, single read). To distinguish genuine SynFinger sequences from sequencing errors, results were filtered using a reference list of actual sequences used in SynFinger library design (100% codon match). Sequences with a very low number of reads (sum of all samples below 500 reads) were excluded from analysis.
# To identify SynFingers that improve sensitivity of CRASH-IT switches towards lenalidomide while preserving or improving stringency of switch mediated control of T cell activation in the absence of lenalidomide, an enrichment index (EI) value was calculated for each sequence as described below, and SynFingers were ranked according to their EI, with a low EI indicating a SynFinger with desired properties.
# CD69-HI and […] read counts from top 100 SynFingers were compared with read counts from the parental double hybrid degron using a two-sided Fisher's exact test to determine enrichment of CD69-HI cells in the presence of lenalidomide and enrichment of CD69-LO cells in the absence of lenalidomide.
# To further improve the sensitivity of double hybrid degron towards IMiDs, we performed a high throughput screen using a library of ˜50,200 CRASH-IT variants that encode either single or double amino acid substitutions at the indicated positions of the first hybrid zinc finger sequence, thereby changing 18 amino acids of this zinc finger into any amino acid except cysteine (FIG. 3). […]
# [2] = tested on: Primary human T cells; assay: Cytokine production and degranulation of CDK4 TCR T cells with Zap70-Siglec11-degron CRASH-IT switch co-cultured with NKIRTIL006 melanoma cells, lenalidomide; format: cell-based; settings: for cytokine production at very low lenalidomide concentration: 5 nM lenalidomide, as compared to double hybrid degron containing CRASH-IT switch
# Text: FIG. 5: SynFingers fusion proteins enable sensitive control of immune cell functions. A subset of SynFingers identified in the SynFinger library screen were individually validated. (A-H) Primary human T cells were modified with the HLA class I restricted CDK4 TCR plus a Zap70-Siglec11-degron CRASH-IT switch, in which the degron sequence contains the parental zinc finger degron (double hybrid degron depicted in FIGS. 1 and 3), or the parental zinc finger degron with the following mutations: G14N/K21A, G14M/N15R, L17I/K21L, E4R/Q12L, Q12R/K13T, or Q12R/K13V. As a control, primary human T cells modified with the HLA class I restricted CDK4 TCR plus vector control were used. Cells were pretreated with 5 nM lenalidomide or left untreated. Data depict intracellular IFNγ, IL2, TNFα, and cell surface LAMP1 expression of CDK4 TCR+, EGFP intermediate, CD8+ T cells upon co-culture with NKIRTIL006 melanoma cells in the continued absence (E-H) or continued presence of 5 nM lenalidomide (A-D). Dashed horizontal lines indicate cytokine production and degranulation levels of cells modified with a CRASH-IT switch containing the parental zinc finger degron. Error bars represent standard deviation (n=2). SynFinger and vector control groups were compared to the parental zinc finger group using a one-sided t test: *=p<0.05, **=p<0.01, ***=p<0.001, ****=p<0.0001, n.s.=not significant. Data are representative of two independent experiments.
# FIG. 6: SynFinger containing CRASH-IT switches enable restoration of cytokine production and degranulation at lower IMID concentrations as compared to zinc finger degrons not according to the invention. (A-D) Primary human T cells modified with the HLA class I restricted CDK4 TCR plus a Zap70-Siglec11-degron CRASH-IT switch, in which the degron sequence contains prior art zinc finger degrons (single hybrid, dual zinc finger degron depicted in FIG. 1), the parental zinc finger degron (double hybrid degron depicted in FIGS. 1 and 3), or the parental zinc finger degron with the following mutations: G14N/K21A, L17I/K21L, or Q12R/K13V, were pretreated with the indicated concentrations of lenalidomide or left untreated. Data depict intracellular IFNγ, IL2, TNFα, and cell surface LAMP1 expression of CDK4 TCR+, EGFP intermediate, CD8+ T cells upon co-culture with NKIRTIL006 melanoma cells in the continued presence or absence of the indicated concentration of lenalidomide (A-D). Error bars represent standard deviation (n=3). Data are representative of two independent experiments. (E) Table depicts EC50Lenalidomide (nM) values of cells in (A-D), and EC50 fold change between the prior art zinc finger degron and a SynFinger containing the Q12R/K13V substitutions.
# FIG. 7: Combination of dual substitution sets can further increase lenalidomide sensitivity of SynFinger degron. (A-D) Primary human T cells modified with the HLA class I restricted CDK4 TCR plus a Zap70-Siglec11-degron CRASH-IT switch, in which the degron sequence contains the parental zinc finger degron (double hybrid degron depicted in FIGS. 1 and 3), or the parental zinc finger degron with the following mutations: G14N/K21A, Q12R/K13V, or Q12R/K13V/G14N/K21A, were pretreated with the indicated concentrations of lenalidomide or left untreated. Data depict intracellular IFNγ, IL2, TNFα, and cell surface LAMP1 expression of CDK4 TCR+, EGFP intermediate, CD8+ T cells upon co-culture with NKIRTIL006 melanoma cells in the continued presence or absence of the indicated concentration of lenalidomide (A-D). Error bars represent standard deviation (n=3). Data are representative of two independent experiments.
# To test whether the SynFingers that show an improved drug sensitivity in this Jurkat SynFinger library screen also led to an improved sensitivity to low IMID concentrations when expressed in primary human T cells, human peripheral blood T cells were modified to express the CDK4 TCR and indicated SynFinger containing CRASH-IT switch variants (FIG. 5). […]
# [3] = target: IMID/CRBN E3 ligase complex (Homo sapiens, UniProt Q96SW2); settings: as compared to non-hybrid ZFP91 ZF4 and IKZF1 ZF2 zinc finger degrons; cited from earlier work
# [4] = tested on: Primary human T cells; assay: Cytokine production and degranulation of CDK4 TCR T cells with Zap70-PD1-degron CRASH-IT switch co-cultured with NKIRTIL006 melanoma cells, thalidomide titration; format: cell-based; settings: as compared to single hybrid, dual zinc finger prior art degron; IFNγ, IL2, TNFα, LAMP-1
# Text: FIG. 1: Sensitivity of zinc finger degrons to IMiD can be improved by alteration of the second zinc finger sequence. (A) Schematic representation of a panel of zinc finger degrons containing the ZFP91 ZF4 beta hairpin and IKZF1 ZF2 alpha helix as a hybrid first zinc finger. […] (B-E) Primary human T cells modified with the HLA class I restricted CDK4 TCR plus a Zap70-PD1-degron CRASH-IT switch, in which the degron sequence is selected from (A), were pretreated with indicated concentrations of thalidomide. Data depict intracellular IFNγ, IL2, TNFα, and cell surface LAMP1 expression of CDK4 TCR+, EGFP high, CD8+ T cells upon co-culture with NKIRTIL006 melanoma cells in the continued presence of indicated concentrations of thalidomide. Error bars represent standard deviation (n=2). Data are representative of two independent experiments.
# To our knowledge, the possibility of using a hybrid zinc finger as the second zinc finger as a means to improve the overall sensitivity of the dual zinc finger degron system was not tested before. To investigate whether the second zinc finger (IKZF1 ZF3) of the single hybrid, dual zinc finger prior art degron can be replaced with other zinc finger sequences while preserving or improving sensitivity towards IMiDs, we created a panel of CRASH-IT switches containing the zinc finger degrons shown in FIG. 1. […]
# [5] = tested on: multiple myeloma patients; settings: high-dose (25 mg per day) cohort; cited from earlier work
# IMID/CRBN E3 ligase complex, sequence (Q96SW2 whole entry, one chain of several): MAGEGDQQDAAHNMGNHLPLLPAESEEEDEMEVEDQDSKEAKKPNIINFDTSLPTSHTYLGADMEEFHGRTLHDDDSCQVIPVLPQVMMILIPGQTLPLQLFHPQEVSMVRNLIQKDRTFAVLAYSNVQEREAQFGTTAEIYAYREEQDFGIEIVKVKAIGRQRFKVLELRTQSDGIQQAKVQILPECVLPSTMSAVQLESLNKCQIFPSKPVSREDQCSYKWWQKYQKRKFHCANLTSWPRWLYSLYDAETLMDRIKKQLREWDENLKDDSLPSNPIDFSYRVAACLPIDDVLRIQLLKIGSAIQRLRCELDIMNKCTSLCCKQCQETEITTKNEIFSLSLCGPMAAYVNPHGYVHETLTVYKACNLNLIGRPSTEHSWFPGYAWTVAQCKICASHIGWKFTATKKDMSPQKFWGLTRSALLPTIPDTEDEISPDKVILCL
compound,measurement,setting,value
LQCEICGFTCRRVGNLLRHIKLH [SEQ ID NO: 9],EI,[1]; Jurkat SynFinger screen,0.006877
same,cytokine production at very low lenalidomide concentration,[2],improved cytokine production
LQCEICGFTCRQKGNLIRHILLH [SEQ ID NO: 14],cytokine production at very low lenalidomide concentration,[2],improved cytokine production
"LQCEICGFTCRQKGNLLRHIKLH [single hybrid, single zinc finger degron, ZFP91 ZF4 beta hairpin-IKZF1 ZF2 alpha helix, no second zinc finger, reference compound]",sensitivity towards IMiD induced degradation,[3],increase sensitivity
same,sensitivity of the CRASH-IT switch towards thalidomide,[4],reduced thalidomide sensitivity
LQCEICGFTCRRTGNLLRHIKLH [SEQ ID NO: 2],cytokine production at very low lenalidomide concentration,[2],improved cytokine production
LQCEICGFTCRQKMRLLRHIKLH [SEQ ID NO: 4],cytokine production at very low lenalidomide concentration,[2],improved cytokine production
"LQCEICGFTCRRVNNLLRHIALH [Q12R/K13V/G14N/K21A, SynFinger degron with quadruple substitutions]",sensitivity of the SynFinger towards lenalidomide,[2]; as compared to SynFinger degrons with Q12R/K13V or G14N/K21A,improved the sensitivity
LQCEICGFTCRQKNNLLRHIALH [SEQ ID NO: 6],cytokine production at very low lenalidomide concentration,[2],improved cytokine production
LQCRICGFTCRLKGNLLRHIKLH [SEQ ID NO: 1],cytokine production at very low lenalidomide concentration,[2],improved cytokine production
"LQCEICGFTCRQKGNLLRHIKLHSGEKPFKCHLCNYACRRKDSVVAHKAKSH [double hybrid degron, ZFP91 ZF4 beta hairpin-IKZF1 ZF2 alpha helix plus IKZF1 ZF3 beta hairpin-ZFP91 ZF5 alpha helix]",cells activated at 50 nM lenalidomide as compared to maximally effective 1000 nM lenalidomide dose,"[1]; Jurkat cells expressing CRASH-IT switch, 50 nM lenalidomide",~50%
same,sensitivity of the CRASH-IT switch towards thalidomide,[4],improved the sensitivity
65 (LQCEICGFTCRQKGNLLRHIFKH) [compound 65],EI index (enrichment index),[1],0.02989
Nc1cccc2c1CN(C1CCC(=O)NC1=O)C2=O (stereo not drawn) [lenalidomide],toxicity in maintenance therapy,[5],"dose reductions due to toxicity, in particular neutropenia, were frequent"
48 (LQCEICGFTCRKKGNLLRHKKLH) [compound 48],EI index (enrichment index),[1],0.02219
